Reference: ChEMBL document CHEMBL5055632, “Anti-Inflammatory and Antinociceptive Properties of Kielmeyerone A, a Chromenone Isolated from the Roots of Kielmeyera reticulata” (J Nat Prod, 2021)
Calls of active or inactive are those of the source. The rule behind the calls is not given here.

What was measured:
Mus musculus [1] = experiment: Antiinflammatory activity in ip dosed Swiss Webster mouse model of complete freund's adjuvant-induced paw edema assessed as reduction in paw edema when administered 40 mins before CFA injection by plethysmometer analysis; assay type: functional, organism-based; settings: dose 12.5-50 mg/kg
J774 [2] = experiment: Cytotoxicity against LPS and IFN-gamma stimulated mouse J774 cells at 0.39 to 25 uM incubated for 72 hrs by alamar blue dye based colorimetric plate analysis; assay type: cell-based; settings: j774, 72 h, dose 0.39-25 µM
J774 [3] = experiment: Antiinflammatory activity against mouse J774 cells assessed as inhibition of LPS/IFNgamma-stimulated NO production at 0.097 to 1.56 uM incubated for 24 hrs bu Griess reagent based assay; assay type: functional, cell-based; settings: dose 0.097-1.56 µM
Mus musculus [4] = experiment: Effect on motor performance in Swiss Webster mouse assessed as effect on relaxing or motor deficit at 100 mg/kg, ip measured up to 120 sec by rotarod test; assay type: ADME, organism-based; settings: in vivo, 2 min
Mus musculus [5] = experiment: Antinociceptive activity in ip dosed Swiss Webster mouse model of formalin-induced biphasic nociceptive response assessed as reduction in pain during late phase when administered 40 mins before formalin injection and measured after 10 to 30 mins post formalin challenge; assay type: functional, organism-based; settings: dose 12.5-50 mg/kg, time 50-70 min
Mus musculus [6] = experiment: Antinociceptive activity in Swiss Webster mouse model of formalin-induced biphasic nociceptive response assessed as reduction in pain during early phase at 12.5 to 50 mg/kg, ip administered 40 mins before formalin injection and measured after 10 mins post formalin challenge; assay type: functional, organism-based; settings: dose 12.5-50 mg/kg, time 50.0 min
Mus musculus [7] = experiment: Antiinflammatory activity in Swiss Webster mouse model of complete freund's adjuvant-induced paw edema assessed as reduction in paw edema at 2 mg/kg, ip administered 40 mins before CFA injection by plethysmometer analysis; assay type: functional, organism-based
Mus musculus [8] = experiment: Antinociceptive activity in Swiss Webster mouse model of formalin-induced biphasic nociceptive response assessed as reduction in pain during late phase at 5 mg/kg, ip administered 40 mins before formalin injection and measured after 10 to 30 mins post formalin challenge; assay type: functional, organism-based; settings: time 50-70 min
Mus musculus [9] = experiment: Antinociceptive activity in Swiss Webster mouse model of formalin-induced biphasic nociceptive response assessed as reduction in pain during early phase at 5 mg/kg, ip administered 40 mins before formalin injection and measured after 10 mins post formalin challenge; assay type: functional, organism-based; settings: time 50.0 min

Question: What does the source list for `CC(C)=CCC1(CC=C(C)C)C(=O)c2c(CC(C)C)cc(=O)oc2C(C(=O)CC(C)C)=C1O`?
Answer: Activity (Mus musculus [1]): Dose-dependent effect; Activity (J774 [2]): Non-Toxic; inhibition (J774 [3]): Active; Activity (Mus musculus [4]): Non-Toxic; Activity (Mus musculus [5]): inactive; Activity (Mus musculus [6]): Dose-dependent effect

Question: How did the Activity (Mus musculus [7]) turn out when `C[C@@H]1C[C@H]2[C@@H]3CCC4=CC(=O)C=C[C@]4(C)[C@@]3(F)[C@@H](O)C[C@]2(C)[C@@]1(O)C(=O)CO` was run?
Answer: Active

Question: `COc1ccc2c(c1)c(CC(=O)O)c(C)n2C(=O)c1ccc(Cl)cc1` was tested. Which Activity (Mus musculus [8]) did it give?
Answer: Active

Question: And the Activity (Mus musculus [9])?
Answer: inactive

Question: For `CN1CC[C@]23c4c5ccc(O)c4O[C@H]2[C@@H](O)C=C[C@H]3[C@H]1C5`, which Activity (Mus musculus [8]) is on record?
Answer: Active

Question: What about the Activity (Mus musculus [9]) of the same compound?
Answer: Active
